Assay results from patent publication US12459899B2, “Isoquinolinone derivatives, method for preparing the same, and pharmaceutical composition for preventing or treating poly(ADP-ribose) polymerase-1-related diseases, comprising the same as active ingredient” (DIGMBIO. INC., priority 2019, dated 2025).

Molecular target: PARP-1 (poly[ADP-ribose] polymerase 1) enzyme (Homo sapiens (Human), UniProt P09874)
Assay: PARP-1 (poly[ADP-ribose] polymerase 1) enzyme inhibitory ability, Trevigen assay kit
Format: biochemical
Conditions: 1 nM compound; read-out: PAR P-1 Inhibitory ability at 1 nM
Procedure, shortened: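 After the 1 hour PARP reaction, wells were washed with PBS containing 0.1% triton X-100 and then PBS. Strep-HRP (50 μL) was bound for 1 hour, wells washed again, and 50 μL of TACS-sapphire substrate developed 15 minutes in the dark. Reactions were stopped with 50 μL of 5% phosphoric acid and absorbance read at 450 nm on a Victor3 reader.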

PARP-1 (poly[ADP-ribose] polymerase 1) enzyme, sequence (P09874 whole entry): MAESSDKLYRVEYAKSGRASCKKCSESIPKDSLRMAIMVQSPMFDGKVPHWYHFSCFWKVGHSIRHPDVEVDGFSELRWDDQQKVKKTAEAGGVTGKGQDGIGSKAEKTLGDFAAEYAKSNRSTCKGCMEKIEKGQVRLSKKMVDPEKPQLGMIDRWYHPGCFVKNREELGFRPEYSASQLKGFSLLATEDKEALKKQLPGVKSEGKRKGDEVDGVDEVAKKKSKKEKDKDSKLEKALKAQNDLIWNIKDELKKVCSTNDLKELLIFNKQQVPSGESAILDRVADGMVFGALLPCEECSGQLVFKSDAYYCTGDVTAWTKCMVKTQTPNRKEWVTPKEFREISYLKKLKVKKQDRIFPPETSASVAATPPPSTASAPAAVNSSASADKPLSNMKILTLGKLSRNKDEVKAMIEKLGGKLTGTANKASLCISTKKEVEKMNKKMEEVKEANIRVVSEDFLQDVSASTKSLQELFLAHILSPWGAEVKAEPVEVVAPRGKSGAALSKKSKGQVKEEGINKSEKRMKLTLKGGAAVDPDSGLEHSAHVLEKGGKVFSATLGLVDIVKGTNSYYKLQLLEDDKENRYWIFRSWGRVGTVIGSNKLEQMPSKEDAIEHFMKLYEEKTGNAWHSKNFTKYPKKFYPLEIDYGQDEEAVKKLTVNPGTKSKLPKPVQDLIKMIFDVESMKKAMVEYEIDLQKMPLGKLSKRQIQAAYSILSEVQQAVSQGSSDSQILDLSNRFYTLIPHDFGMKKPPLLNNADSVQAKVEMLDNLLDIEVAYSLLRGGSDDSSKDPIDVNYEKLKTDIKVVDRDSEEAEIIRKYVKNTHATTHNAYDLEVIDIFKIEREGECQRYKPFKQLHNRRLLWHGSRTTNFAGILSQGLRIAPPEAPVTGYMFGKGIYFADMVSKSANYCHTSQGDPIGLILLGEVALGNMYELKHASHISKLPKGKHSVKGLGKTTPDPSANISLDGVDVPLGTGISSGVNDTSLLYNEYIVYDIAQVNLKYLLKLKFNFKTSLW

inhibition at 0.001 µM	Compound
< 50%	Cc1ccc(F)c2c(=O)[nH]c(CCC(=O)N3CC=C(c4ccc(F)cn4)CC3)cc12 [Example 130, 8-fluoro-3-(3-(5-fluoro-3′,6′-dihydro-[2,4′-bipyridine]-1′(2′H)-yl)-3-oxopropyl)-5-methylisoquinolin-1(2H)-one]
< 50%	Cc1ccc(F)c2c(=O)[nH]c(CCC(=O)N3CCN(c4ccc(Cl)cc4)CC3)cc12 [Example 131, 3-(3-(4-(4-chlorophenyl)piperazin-1-yl)-3-oxopropyl)-8-fluoro-5-methylisoquinolin-1(2H)-one]
< 50%	Cc1ccc(F)c2c(=O)[nH]c(CCC(=O)N3CCN(c4ccc(F)cc4F)CC3)cc12 [Example 132, 3-(3-(4-(2,4-difluorophenyl)piperazin-1-yl)-3-oxopropyl)-8-fluoro-5-methylisoquinolin-1(2H)-one]
< 50%	Cc1ccc(F)c2c(=O)[nH]c(CCC(=O)N3CCN(c4cc(C#N)ccc4F)CC3)cc12 [Example 133, 4-fluoro-3-(4-(3-(8-fluoro-5-methyl-1-oxo-1,2-dihydroisoquinolin-3-yl)propanoyl)piperazin-1-yl)benzonitrile]
< 50%	Cc1ccc(F)c2c(=O)[nH]c(CCC(=O)N3CCN(c4cc(F)ccc4C#N)CC3)cc12 [Example 134, 4-fluoro-2-(4-(3-(8-fluoro-5-methyl-1-oxo-1,2-dihydroisoquinolin-3-yl)propanoyl)piperazin-1-yl)benzonitrile]
< 50%	Cc1ccc(F)c2c(=O)[nH]c(CCC(=O)N3CCN(c4ccc(F)c(C#N)c4)CC3)cc12 [Example 135, 2-fluoro-5-(4-(3-(8-fluoro-5-methyl-1-oxo-1,2-dihydroisoquinolin-3-yl)propanoyl)piperazin-1-yl)benzonitrile]
< 50%	Cc1ccc(F)c2c(=O)[nH]c(CCC(=O)N3CCN(c4ccc(F)cc4C#N)CC3)cc12 [Example 136, 5-fluoro-2-(4-(3-(8-fluoro-5-methyl-1-oxo-1,2-dihydroisoquinolin-3-yl)propanoyl)piperazin-1-yl)benzonitrile]
< 50%	Cc1ccc(F)c2c(=O)[nH]c(CCC(=O)N3CC=C(c4cc(C#N)ccc4F)CC3)cc12 [Example 137, 4-fluoro-3-(1-(3-(8-fluoro-5-methyl-1-oxo-1,2-dihydroisoquinolin-3-yl)propanoyl)-1,2,3,6-tetrahydropyridin-4-yl)benzonitrile]
< 50%	Cc1ccc(F)c2c(=O)[nH]c(CCC(=O)N3CC=C(c4ccccc4F)CC3)cc12 [Example 138, 8-fluoro-3-(3-(4-(2-fluorophenyl)-3,6-dihydropyridin-1(2H)-yl)-3-oxopropyl)-5-methylisoquinolin-1(2H)-one]
< 50%	Cc1ccc(F)c2c(=O)[nH]c(CCC(=O)N3CC=C(c4ccc(F)c(C#N)c4)CC3)cc12 [Example 139, 2-fluoro-5-(1-(3-(8-fluoro-5-methyl-1-oxo-1,2-dihydroisoquinolin-3-yl)propanoyl)-1,2,3,6-tetrahydropyridin-4-yl)benzonitrile]

More lines, now with the values behind:

Compound	inhibition at 0.001 µM
O=C(CCc1cc2ccc(F)cc2c(=O)[nH]1)N1CCN(c2ccc(F)cc2F)CC1 [Example 106, 3-(3-(4-(2,4-difluorophenyl)piperazin-1-yl)-3-oxopropyl)-7-fluoroisoquinolin-1(2H)-one]	< 50%
N#Cc1ccc(F)c(N2CCN(C(=O)CCc3cc4ccc(F)cc4c(=O)[nH]3)CC2)c1 [Example 107, 4-fluoro-3-(4-(3-(7-fluoro-1-oxo-1,2-dihydroisoquinolin-3-yl)propanoyl)piperazin-1-yl)benzonitrile]	< 50%
N#Cc1ccc(F)cc1N1CCN(C(=O)CCc2cc3ccc(F)cc3c(=O)[nH]2)CC1 [Example 108, 4-fluoro-2-(4-(3-(7-fluoro-1-oxo-1,2-dihydroisoquinolin-3-yl)propanoyl)piperazin-1-yl)benzonitrile]	< 50%
N#Cc1cc(N2CCN(C(=O)CCc3cc4ccc(F)cc4c(=O)[nH]3)CC2)ccc1F [Example 109, 2-fluoro-5-(4-(3-(7-fluoro-1-oxo-1,2-dihydroisoquinolin-3-yl)propanoyl)piperazin-1-yl)benzonitrile]	< 50%
N#Cc1cc(F)ccc1N1CCN(C(=O)CCc2cc3ccc(F)cc3c(=O)[nH]2)CC1 [Example 110, 5-fluoro-2-(4-(3-(7-fluoro-1-oxo-1,2-dihydroisoquinolin-3-yl)propanoyl)piperazin-1-yl)benzonitrile]	< 50%
N#Cc1ccc(F)c(C2=CCN(C(=O)CCc3cc4ccc(F)cc4c(=O)[nH]3)CC2)c1 [Example 111, 4-fluoro-3-(1-(3-(7-fluoro-1-oxo-1,2-dihydroisoquinolin-3-yl)propanoyl)-1,2,3,6-tetrahydropyridin-4-yl)benzonitrile]	< 50%
N#Cc1cc(F)ccc1C1=CCN(C(=O)CCc2cc3ccc(F)cc3c(=O)[nH]2)CC1 [Example 112, 5-fluoro-2-(1-(3-(7-fluoro-1-oxo-1,2-dihydroisoquinolin-3-yl)propanoyl)-1,2,3,6-tetrahydropyridin-4-yl)benzonitrile]	< 50%
O=C(CCc1cc2ccc(F)cc2c(=O)[nH]1)N1CC=C(c2ccc(F)cc2F)CC1 [Example 113, 3-(3-(4-(2,4-difluorophenyl)-3,6-dihydropyridin-1(2H)-yl)-3-oxopropyl)-7-fluoroisoquinolin-1(2H)-one]	< 50%
N#Cc1cc(F)cc(C2=CCN(C(=O)CCc3cc4ccc(F)cc4c(=O)[nH]3)CC2)c1 [Example 114, 3-fluoro-5-(1-(3-(7-fluoro-1-oxo-1,2-dihydroisoquinolin-3-yl)propanoyl)-1,2,3,6-tetrahydropyridin-4-yl)benzonitrile]	< 50%
O=C(CCc1cc2ccc(F)cc2c(=O)[nH]1)N1CC=C(c2cccc(F)c2)CC1 [Example 115, 7-fluoro-3-(3-(4-(3-fluorophenyl)-3,6-dihydropyridin-1(2H)-yl)-3-oxopropyl)isoquinolin-1(2H)-one]	< 50%
O=C(CCc1cc2ccc(F)cc2c(=O)[nH]1)N1CC[C@H](c2ccc(F)cc2)C1 [Example 116, (R)-7-fluoro-3-(3-(3-(4-fluorophenyl)pyrrolidin-1-yl)-3-oxopropyl)isoquinolin-1(2H)-one]	< 50%
O=C(CCc1cc2ccc(F)cc2c(=O)[nH]1)N1CC[C@@H](c2ccc(F)cc2)C1 [Example 117, (S)-7-fluoro-3-(3-(3-(4-fluorophenyl)pyrrolidin-1-yl)-3-oxopropyl)isoquinolin-1(2H)-one]	< 50%
O=C(CCc1cc2ccc(F)cc2c(=O)[nH]1)N1CCN(c2ccc(C(F)(F)F)cc2)CC1 [Example 118, 7-fluoro-3-(3-oxo-3-(4-(4-(trifluoromethyl)phenyl)piperazin-1-yl)propyl)isoquinolin-1(2H)-one]	< 50%
N#Cc1cc(F)cc(N2CCN(C(=O)CCc3cc4ccc(F)cc4c(=O)[nH]3)CC2)c1 [Example 119, 3-fluoro-5-(4-(3-(7-fluoro-1-oxo-1,2-dihydroisoquinolin-3-yl)propanoyl)piperazin-1-yl)benzonitrile]	< 50%
O=C(CCc1cc2ccc(F)cc2c(=O)[nH]1)N1CCN(c2cccc(F)c2)CC1 [Example 120, 7-fluoro-3-(3-(4-(3-fluorophenyl)piperazin-1-yl)-3-oxopropyl)isoquinolin-1(2H)-one]	< 50%
O=C(CCc1cc2ccc(F)cc2c(=O)[nH]1)N1CC=C(c2ccnc(F)c2)CC1 [Example 121, 7-fluoro-3-(3-(2′-fluoro-3,6-dihydro-[4,4′-bipyridine]-1(2H)-yl)-3-oxopropyl)isoquinolin-1(2H)-one]	< 50%
Cc1ccc(F)c2c(=O)[nH]c(CCC(=O)N3CCN(c4ccc(C#N)cc4)CC3)cc12 [Example 122, 4-(4-(3-(8-fluoro-5-methyl-1-oxo-1,2-dihydroisoquinolin-3-yl)propanoyl)piperazin-1-yl)benzonitrile]	< 50%
Cc1ccc(F)c2c(=O)[nH]c(CCC(=O)N3CCN(c4ccc(C#N)cn4)CC3)cc12 [Example 123, 6-(4-(3-(8-fluoro-5-methyl-1-oxo-1,2-dihydroisoquinolin-3-yl)propanoyl)piperazin-1-yl)nicotinonitrile]	< 50%
Cc1ccc(F)c2c(=O)[nH]c(CCC(=O)N3CCN(c4ccc(C#N)nc4)CC3)cc12 [Example 124, 5-(4-(3-(8-fluoro-5-methyl-1-oxo-1,2-dihydroisoquinolin-3-yl)propanoyl)piperazin-1-yl)picolinonitrile]	< 50%
Cc1ccc(F)c2c(=O)[nH]c(CCC(=O)N3CC=C(c4ccc(F)cc4)CC3)cc12 [Example 125, 8-fluoro-3-(3-(4-(4-fluorophenyl)-3,6-dihydropyridin-1(2H)-yl)-3-oxopropyl)-5-methylisoquinolin-1(2H)-one]	< 50%
Cc1ccc(F)c2c(=O)[nH]c(CCC(=O)N3CCN(c4ccc(C#N)c(F)c4)CC3)cc12 [Example 126, 2-fluoro-4-(4-(3-(8-fluoro-5-methyl-1-oxo-1,2-dihydroisoquinolin-3-yl)propanoyl)piperazin-1-yl)benzonitrile]	< 50%
Cc1ccc(F)c2c(=O)[nH]c(CCC(=O)N3CCN(c4ccccc4C#N)CC3)cc12 [Example 127, 2-(4-(3-(8-fluoro-5-methyl-1-oxo-1,2-dihydroisoquinolin-3-yl)propanoyl)piperazin-1-yl)benzonitrile]	< 50%
Cc1ccc(F)c2c(=O)[nH]c(CCC(=O)N3CCN(c4ccc(C#N)cc4F)CC3)cc12 [Example 128, 3-fluoro-4-(4-(3-(8-fluoro-5-methyl-1-oxo-1,2-dihydroisoquinolin-3-yl)propanoyl)piperazin-1-yl)benzonitrile]	< 50%
Cc1ccc(F)c2c(=O)[nH]c(CCC(=O)N3CC=C(c4ccc(F)nc4)CC3)cc12 [Example 129]	< 50%

Same assay, conditions: PARP-1 enzyme activity

Compound	IC50
Cc1ccc(F)c2c(=O)[nH]c(CCC(=O)N3CCN(c4ccc(C#N)cc4F)CC3)cc12 [Example 128, 3-fluoro-4-(4-(3-(8-fluoro-5-methyl-1-oxo-1,2-dihydroisoquinolin-3-yl)propanoyl)piperazin-1-yl)benzonitrile]	1.38 nM
